Measured values as given in ChEMBL document CHEMBL3745672, “Novel compounds reducing IRS-1 serine phosphorylation for treatment of diabetes” (Bioorg Med Chem Lett, 2016).
Activity calls are given as the source filed them. The calls are words filed in the database; no cut-off is given here.

Assays:
[1] = target: Insulin receptor (Homo sapiens) (UniProt P06213); test: Inhibition of INSR (unknown origin) at 1 uM
[2] = target: CDK2/Cyclin A2 (Homo sapiens) (UniProt P24941+P20248); test: Inhibition of CDK2/CyclinA (unknown origin) at 1 uM; format: protein-complex assay
[3] = target: Serine/threonine-protein kinase pim-1 (Homo sapiens) (UniProt P11309); test: Inhibition of PIM1 (unknown origin) at 1 uM
[4] = target: Tyrosine-protein kinase SYK (Homo sapiens) (UniProt P43405); test: Inhibition of SYK (unknown origin) at 1 uM
[5] = target: Serine/threonine-protein kinase PLK3 (Homo sapiens) (UniProt Q9H4B4); test: Inhibition of PLK3 (unknown origin) at 1 uM
[6] = target: Receptor-type tyrosine-protein kinase FLT3 (Homo sapiens) (UniProt P36888); test: Inhibition of FLT3 (unknown origin) at 1 uM
[7] = target: Serine/threonine-protein kinase PAK 4 (Homo sapiens) (UniProt O96013); test: Inhibition of PAK4 (unknown origin) at 1 uM
[8] = target: T1, Aurora kinase A (Homo sapiens) (UniProt O14965); test: Inhibition of AurA (unknown origin) at 1 uM
T1 sequence (whole entry): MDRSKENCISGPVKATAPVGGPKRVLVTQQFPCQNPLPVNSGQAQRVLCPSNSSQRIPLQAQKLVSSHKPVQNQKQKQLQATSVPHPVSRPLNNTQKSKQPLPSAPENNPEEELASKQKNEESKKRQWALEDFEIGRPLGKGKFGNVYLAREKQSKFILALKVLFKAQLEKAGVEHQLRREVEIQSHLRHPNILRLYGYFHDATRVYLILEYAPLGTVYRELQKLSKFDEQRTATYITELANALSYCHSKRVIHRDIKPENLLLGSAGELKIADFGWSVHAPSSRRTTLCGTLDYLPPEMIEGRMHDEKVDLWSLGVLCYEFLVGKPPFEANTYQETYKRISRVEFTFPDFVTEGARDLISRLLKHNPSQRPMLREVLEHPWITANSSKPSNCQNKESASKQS

[9] = target: Tyrosine-protein kinase receptor UFO (Homo sapiens) (UniProt P30530); test: Inhibition of AXL (unknown origin) at 1 uM
[10] = target: Hepatocyte growth factor receptor (Homo sapiens) (UniProt P08581); test: Inhibition of cMET (unknown origin) at 1 uM
[11] = target: Mitogen-activated protein kinase 8 (Rattus norvegicus) (UniProt P49185); test: Inhibition of albumin-conjugated palmitate-induced JNK1/2 phosphorylation assessed as JNK phosphorylation level in rat RINm5F cells incubated for 8 hrs; format: cell-based
[12] = target: Mitogen-activated protein kinase 8 (Rattus norvegicus) (UniProt P49185); test: Inhibition of JNK1 phosphorylation in rat RINm5F cells assessed as suppression of albumin-conjugated palmitate-induced IRS-1 Ser307 phosphorylation incubated for 8 hrs; format: cell-based; parameters: concentration or dose not given beside the values; details: concentration not given here
[13] = target: RAC-alpha serine/threonine-protein kinase (Homo sapiens) (UniProt P31749); test: Inhibition of AKT1 (unknown origin) at 1 uM
[14] = target: T2, Serine/threonine-protein kinase Chk1 (Homo sapiens) (UniProt O14757); test: Inhibition of CHK1 (unknown origin) at 1 uM
T2 sequence (whole entry): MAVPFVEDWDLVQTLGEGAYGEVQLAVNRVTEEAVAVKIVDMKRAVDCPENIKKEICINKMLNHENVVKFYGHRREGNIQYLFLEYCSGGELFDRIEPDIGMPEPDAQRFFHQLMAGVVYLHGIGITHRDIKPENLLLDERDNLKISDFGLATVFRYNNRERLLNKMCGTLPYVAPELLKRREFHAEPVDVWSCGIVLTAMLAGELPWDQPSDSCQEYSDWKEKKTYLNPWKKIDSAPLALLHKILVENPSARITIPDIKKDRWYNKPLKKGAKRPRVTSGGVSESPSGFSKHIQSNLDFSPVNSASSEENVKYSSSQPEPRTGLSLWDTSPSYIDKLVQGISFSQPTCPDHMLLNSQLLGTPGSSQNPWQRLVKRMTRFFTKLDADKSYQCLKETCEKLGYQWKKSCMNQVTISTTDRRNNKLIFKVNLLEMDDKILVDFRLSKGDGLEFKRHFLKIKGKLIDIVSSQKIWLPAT

[15] = target: Serine/threonine-protein kinase mTOR (Homo sapiens) (UniProt P42345); test: Inhibition of mTOR (unknown origin) at 1 uM
[16] = target: Tyrosine-protein kinase CSK (Homo sapiens) (UniProt P41240); test: Inhibition of CSK (unknown origin) at 1 uM
[17] = target: Cyclin-dependent kinase 4/cyclin D1 (Homo sapiens) (UniProt P11802+P24385); test: Inhibition of CDK4/cyclin D1 (unknown origin) at 1 uM; format: protein-complex assay
[18] = target: Death-associated protein kinase 3 (Homo sapiens) (UniProt O43293); test: Inhibition of DAPK3 (unknown origin) at 1 uM
[19] = target: Proto-oncogene tyrosine-protein kinase receptor Ret (Homo sapiens) (UniProt P07949); test: Inhibition of RET (unknown origin) at 1 uM

Sequence of Mitogen-activated protein kinase 8 (Rattus norvegicus) (P49185 whole entry): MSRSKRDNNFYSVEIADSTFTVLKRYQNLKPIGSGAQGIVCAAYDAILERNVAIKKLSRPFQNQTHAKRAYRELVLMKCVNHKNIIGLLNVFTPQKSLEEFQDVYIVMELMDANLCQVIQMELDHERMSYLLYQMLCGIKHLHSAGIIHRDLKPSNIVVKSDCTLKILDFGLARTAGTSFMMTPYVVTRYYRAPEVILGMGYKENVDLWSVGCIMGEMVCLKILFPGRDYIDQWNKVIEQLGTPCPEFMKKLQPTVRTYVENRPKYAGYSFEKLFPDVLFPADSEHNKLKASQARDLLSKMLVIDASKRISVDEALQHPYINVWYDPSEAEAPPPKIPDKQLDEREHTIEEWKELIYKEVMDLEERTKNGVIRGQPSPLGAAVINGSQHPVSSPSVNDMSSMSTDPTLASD
Sequence of Tyrosine-protein kinase CSK (Homo sapiens) (P41240 2-450 limits assumed): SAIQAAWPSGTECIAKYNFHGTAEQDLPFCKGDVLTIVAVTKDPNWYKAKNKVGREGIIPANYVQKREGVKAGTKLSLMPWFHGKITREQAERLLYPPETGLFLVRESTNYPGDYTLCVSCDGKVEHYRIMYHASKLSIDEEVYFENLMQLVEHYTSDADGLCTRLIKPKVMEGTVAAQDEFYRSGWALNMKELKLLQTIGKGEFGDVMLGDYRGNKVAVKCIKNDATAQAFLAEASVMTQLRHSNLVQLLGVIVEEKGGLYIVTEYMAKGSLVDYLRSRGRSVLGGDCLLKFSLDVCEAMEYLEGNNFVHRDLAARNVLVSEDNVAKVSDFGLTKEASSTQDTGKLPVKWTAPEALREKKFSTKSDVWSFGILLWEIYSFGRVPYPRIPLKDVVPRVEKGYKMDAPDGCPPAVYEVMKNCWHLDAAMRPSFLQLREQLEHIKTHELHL
Sequence of Tyrosine-protein kinase receptor UFO (Homo sapiens) (P30530 whole entry): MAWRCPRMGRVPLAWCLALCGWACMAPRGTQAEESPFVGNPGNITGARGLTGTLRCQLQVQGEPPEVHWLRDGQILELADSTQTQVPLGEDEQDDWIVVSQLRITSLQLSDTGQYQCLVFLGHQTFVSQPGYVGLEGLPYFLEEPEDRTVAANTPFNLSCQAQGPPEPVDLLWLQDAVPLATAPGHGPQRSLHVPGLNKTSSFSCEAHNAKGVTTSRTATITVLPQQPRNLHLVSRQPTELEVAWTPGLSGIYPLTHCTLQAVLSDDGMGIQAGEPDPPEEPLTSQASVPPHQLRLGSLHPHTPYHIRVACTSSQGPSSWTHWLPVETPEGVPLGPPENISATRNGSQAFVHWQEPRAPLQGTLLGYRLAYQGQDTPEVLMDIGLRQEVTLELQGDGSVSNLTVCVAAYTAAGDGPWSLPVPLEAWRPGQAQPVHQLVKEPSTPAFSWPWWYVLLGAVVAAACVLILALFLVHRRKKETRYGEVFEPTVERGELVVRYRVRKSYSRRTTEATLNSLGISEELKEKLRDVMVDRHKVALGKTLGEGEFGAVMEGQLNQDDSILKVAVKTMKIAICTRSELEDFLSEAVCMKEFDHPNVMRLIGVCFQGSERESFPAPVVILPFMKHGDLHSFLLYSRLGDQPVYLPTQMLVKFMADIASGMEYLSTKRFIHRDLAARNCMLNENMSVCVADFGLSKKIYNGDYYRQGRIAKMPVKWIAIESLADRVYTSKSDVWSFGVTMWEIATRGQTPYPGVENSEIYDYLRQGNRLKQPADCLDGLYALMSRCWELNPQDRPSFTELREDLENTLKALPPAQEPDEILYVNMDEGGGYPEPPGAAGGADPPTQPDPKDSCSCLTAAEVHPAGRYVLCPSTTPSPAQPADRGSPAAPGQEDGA
Sequence of Serine/threonine-protein kinase PAK 4 (Homo sapiens) (O96013 whole entry, looked up): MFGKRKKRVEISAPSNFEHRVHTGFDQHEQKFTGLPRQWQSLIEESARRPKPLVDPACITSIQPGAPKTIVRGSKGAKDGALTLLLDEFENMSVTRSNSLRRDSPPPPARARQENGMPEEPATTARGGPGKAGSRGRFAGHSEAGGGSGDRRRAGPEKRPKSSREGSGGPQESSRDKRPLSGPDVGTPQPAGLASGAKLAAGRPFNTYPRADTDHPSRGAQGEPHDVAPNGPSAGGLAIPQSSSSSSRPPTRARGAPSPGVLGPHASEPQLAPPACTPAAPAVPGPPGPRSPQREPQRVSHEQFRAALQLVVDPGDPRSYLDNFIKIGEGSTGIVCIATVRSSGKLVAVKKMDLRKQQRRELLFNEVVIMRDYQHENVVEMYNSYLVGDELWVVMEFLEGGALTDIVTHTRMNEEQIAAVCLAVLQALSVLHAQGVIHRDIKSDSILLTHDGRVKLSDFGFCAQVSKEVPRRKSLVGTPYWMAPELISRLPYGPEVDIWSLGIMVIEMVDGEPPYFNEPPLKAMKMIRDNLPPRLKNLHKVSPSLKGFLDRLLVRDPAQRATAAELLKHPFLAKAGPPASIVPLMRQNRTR
Sequence of Insulin receptor (Homo sapiens) (P06213 28-758 limits assumed): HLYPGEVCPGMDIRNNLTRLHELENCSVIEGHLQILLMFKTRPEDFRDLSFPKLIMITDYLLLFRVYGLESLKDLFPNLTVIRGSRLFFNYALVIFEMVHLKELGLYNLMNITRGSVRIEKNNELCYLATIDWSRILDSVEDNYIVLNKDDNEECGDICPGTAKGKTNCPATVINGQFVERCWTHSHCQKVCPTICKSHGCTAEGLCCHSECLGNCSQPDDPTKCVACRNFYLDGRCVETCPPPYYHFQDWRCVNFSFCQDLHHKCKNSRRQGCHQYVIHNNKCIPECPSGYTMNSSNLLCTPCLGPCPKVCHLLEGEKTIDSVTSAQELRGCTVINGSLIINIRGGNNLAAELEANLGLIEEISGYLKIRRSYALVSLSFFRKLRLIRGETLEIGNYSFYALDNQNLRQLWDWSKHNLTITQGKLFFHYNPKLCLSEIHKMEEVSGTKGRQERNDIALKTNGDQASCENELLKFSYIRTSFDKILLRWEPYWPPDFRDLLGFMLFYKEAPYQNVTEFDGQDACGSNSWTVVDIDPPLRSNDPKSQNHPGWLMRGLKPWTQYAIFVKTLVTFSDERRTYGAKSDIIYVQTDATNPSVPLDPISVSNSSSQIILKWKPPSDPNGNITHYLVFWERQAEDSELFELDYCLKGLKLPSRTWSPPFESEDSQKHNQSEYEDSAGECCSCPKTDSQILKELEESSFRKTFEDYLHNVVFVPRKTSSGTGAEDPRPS
Sequence of Insulin receptor (Homo sapiens) (P06213 763-1382 limits assumed): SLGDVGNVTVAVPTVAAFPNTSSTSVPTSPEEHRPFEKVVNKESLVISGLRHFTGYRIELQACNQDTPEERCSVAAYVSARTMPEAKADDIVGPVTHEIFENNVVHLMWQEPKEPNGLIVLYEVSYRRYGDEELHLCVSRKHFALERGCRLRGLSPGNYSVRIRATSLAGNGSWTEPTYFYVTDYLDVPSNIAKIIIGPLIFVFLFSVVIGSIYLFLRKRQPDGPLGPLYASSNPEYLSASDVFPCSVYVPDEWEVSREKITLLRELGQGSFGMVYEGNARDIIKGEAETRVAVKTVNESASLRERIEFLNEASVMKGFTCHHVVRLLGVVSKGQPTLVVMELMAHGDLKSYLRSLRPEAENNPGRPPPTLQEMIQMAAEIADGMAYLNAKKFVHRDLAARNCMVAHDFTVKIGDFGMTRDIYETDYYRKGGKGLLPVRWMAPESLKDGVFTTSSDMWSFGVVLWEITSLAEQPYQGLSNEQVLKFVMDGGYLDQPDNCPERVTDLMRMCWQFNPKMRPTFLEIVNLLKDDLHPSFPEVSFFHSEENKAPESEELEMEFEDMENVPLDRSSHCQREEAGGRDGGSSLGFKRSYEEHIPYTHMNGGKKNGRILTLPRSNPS
Sequence of Serine/threonine-protein kinase PLK3 (Homo sapiens) (Q9H4B4 whole entry, looked up): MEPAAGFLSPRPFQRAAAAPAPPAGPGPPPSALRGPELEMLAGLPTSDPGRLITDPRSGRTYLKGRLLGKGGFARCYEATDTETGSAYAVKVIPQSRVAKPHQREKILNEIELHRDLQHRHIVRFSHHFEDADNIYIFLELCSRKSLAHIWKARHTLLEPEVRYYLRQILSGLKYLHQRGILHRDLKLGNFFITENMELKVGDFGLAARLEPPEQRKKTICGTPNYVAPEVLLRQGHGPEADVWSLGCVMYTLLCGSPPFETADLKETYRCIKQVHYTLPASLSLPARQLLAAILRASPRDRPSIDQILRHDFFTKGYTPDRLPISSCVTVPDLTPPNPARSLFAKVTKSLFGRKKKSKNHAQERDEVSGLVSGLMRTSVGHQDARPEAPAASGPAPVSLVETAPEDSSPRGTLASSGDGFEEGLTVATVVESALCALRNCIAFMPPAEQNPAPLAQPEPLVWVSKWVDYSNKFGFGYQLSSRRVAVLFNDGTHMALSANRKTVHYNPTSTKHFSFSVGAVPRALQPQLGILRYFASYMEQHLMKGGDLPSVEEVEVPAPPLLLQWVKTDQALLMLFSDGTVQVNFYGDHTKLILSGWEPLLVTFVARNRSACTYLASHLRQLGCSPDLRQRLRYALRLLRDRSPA
Sequence of Serine/threonine-protein kinase pim-1 (Homo sapiens) (P11309 whole entry, looked up): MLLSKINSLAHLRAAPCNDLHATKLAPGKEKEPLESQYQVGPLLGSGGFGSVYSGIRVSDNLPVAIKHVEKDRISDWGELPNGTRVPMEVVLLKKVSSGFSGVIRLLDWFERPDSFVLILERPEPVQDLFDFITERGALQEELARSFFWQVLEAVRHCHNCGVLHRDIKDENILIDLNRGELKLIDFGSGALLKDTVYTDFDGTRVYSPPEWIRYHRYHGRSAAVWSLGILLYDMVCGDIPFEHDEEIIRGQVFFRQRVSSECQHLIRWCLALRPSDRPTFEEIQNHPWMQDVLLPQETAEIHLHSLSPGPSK

- inhibition [1]: 11%
- inhibition [2]: 10%
- inhibition [3]: 6%
- inhibition [4]: 14%
- inhibition [5]: 4%
- inhibition [6]: 8%
- inhibition [7]: 32%
- inhibition [8]: 1%
- inhibition [9]: 16%
- inhibition [10]: 22%
- inhibition [11]: inactive
- inhibition [12]: 96%
- inhibition [13]: 8%
- inhibition [14]: 9%
- inhibition [15]: 9%
- inhibition [16]: 22%
- inhibition [17]: 27%
- inhibition [19]: 30%
Compound: Cn1c(=O)c(Oc2ccc(F)cc2F)cc2cnc(NC3CCN(S(N)(=O)=O)CC3)nc21
- inhibition [18]: 0%
